Laboratory results as given in PMC11229689, “In Vitro Selection of Macrocyclic L-α/D-α/β/γ-Hybrid Peptides Targeting IFN-γ/IFNGR1 Protein–Protein Interaction” (Journal of the American Chemical Society, 2024).
Where two headings read alike, the source gives them in different places. *1 amine or outer side, *2 acyl side, *3 side chain or, on linkers, in order; H or OH if unused. Where a SMILES comes first, the peptide text is derived from it. Bridges are numbered along the chain shown (N, C = ends). [ ]: non-standard residue; d: D form. Acbc(trans-1,3) = O=C([C@H]1C[C@H](N[*:1])C1)[*:2]; Acbc(cis-1,3) = O=C([C@H]1C[C@@H](N[*:1])C1)[*:2]; X1 = O=C([C@@H]1CCC[C@@H]1N[*:1])[*:2]

Experiments:
[1] = Serum stability assay (LC/MS); format: in vitro ADME, human; conditions: human serum, 37 °C, LC/MS, relative to internal standard peptide, n = 3, read-out: half-life in human serum (t1/2) (converted)
Procedure: (§1) Binding affinities of IA1 and IA2 against IFNGR1 were evaluated by surface plasmon resonance (SPR) (Table 1 and SI Figure S6A). […] To investigate the contribution of the N-terminal [yVPβ^1RR] motif and β^1 residue in IA1, three scrambled peptides IA1s1–3 and a variant IA1β^14A were synthesized and evaluated. […] We next evaluated inhibitory activities of IA1 and IA2 against the ligand–receptor PPI between IFN-γ and IFNGR1 using AlphaLISA (Table 1 and SI Figure S7).[37] […] We also determined the serum half-lives of IA1 and IA2, considering peptidase resistance as an important factor for therapeutic peptides.[24] A sample peptide and a peptidase-resistant internal standard peptide were coincubated in human serum at 37 °C, and the relative amount of the remaining sample peptide was estimated by LC/MS. […]
10–200 μM synthetic peptide and 5 μM serum-resistant internal standard peptide consisting only of D-amino acids (NH2-PEG5-wstndwstnd-PEG5-CONH2)3 were mixed and incubated in human serum (Cosmo Bio, 12181201) at 37 °C for up to 120 h. At each time point, 4 μL of the mixture was removed and quenched by adding 12 μl methanol. Following centrifugation (15,000 g, 4 °C, 5 min), 10 μL of the supernatant was mixed with 40 μl of 1% (v/v) TFA. Following centrifugation (15,000 g, 4 °C, 5 min), the supernatant was collected for LC/MS analysis, which used a reverse-phase column (ACQUITY UPLC BEH C18, 1.7 μm, 2.1 × 150 mm; Waters) and a Xevo G2-XS QTof system (Waters) with a linear gradient from 1% B to 61% B. Buffer A was water with 0.1% (v/v) formic acid; buffer B was acetonitrile with 0.1% (v/v) formic acid. The percentages of remaining peptides were determined by the peak area integration of the chromatograms. For tandem mass spectrometry, MS/MS spectra were acquired with a 0.2 s scan time, with 10−30 eV collision energy. The obtained LC/MS data was analyzed using MassLynx 4.1 (Waters). […]

[2] = target: T1, Fc-tagged human IFNGR1 (Homo sapiens, UniProt P15260); experiment: Binding kinetics and affinity to IFNGR1 by surface plasmon resonance (SPR); conditions: for kon: read-out: ka
T1 construct: purchased ACROBiosystems
T1 sequence (P15260 18-489): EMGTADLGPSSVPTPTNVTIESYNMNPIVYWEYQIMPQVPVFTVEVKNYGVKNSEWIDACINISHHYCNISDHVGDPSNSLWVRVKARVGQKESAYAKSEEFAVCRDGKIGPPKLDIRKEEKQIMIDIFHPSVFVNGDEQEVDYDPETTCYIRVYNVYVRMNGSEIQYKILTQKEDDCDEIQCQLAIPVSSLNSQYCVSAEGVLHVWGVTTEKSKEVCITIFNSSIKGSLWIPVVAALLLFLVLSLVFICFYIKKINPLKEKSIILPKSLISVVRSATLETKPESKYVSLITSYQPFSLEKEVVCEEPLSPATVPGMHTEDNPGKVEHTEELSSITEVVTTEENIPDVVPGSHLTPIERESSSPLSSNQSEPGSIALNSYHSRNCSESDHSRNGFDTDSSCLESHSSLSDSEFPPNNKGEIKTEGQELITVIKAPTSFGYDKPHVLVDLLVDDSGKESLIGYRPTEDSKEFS
Procedure: as §1
Evaluation of binding affinity of peptides by surface plasmon resonance The binding affinities of selected peptides and IFNGR1 were analyzed by surface plasmon resonance (SPR) using a Biacore T200 instrument (Cytiva) at 25 °C with the following running buffer: 10 mM Tris-HCl (pH 8.0), 150 mM NaCl, 0.05% (v/v) Tween 20 , and 0.1% (v/v) DMSO. Fc-tagged IFNGR1 was immobilized on a series S sensor chip protein G (Cytiva) to a surface density of 1,200–1,600 response units following the immobilization protocols provided by Cytiva. The kinetic constants were determined by a single-cycle kinetics method by the injection of five different concentrations (twofold dilution series) of each peptide at a flow rate of 30 μL/min. The resulting sensorgrams were fitted to the standard 1:1 interaction model and analyzed using Biacore evaluation software. […]

[3] = SPR, 25 °C, 1:1 binding model, read-out: KD
[4] = SPR, 25 °C, single-cycle kinetics, 1:1 binding model

Compound	half-life ([1]; human) [min]	Kd [2, 3] [nM]	kon [2, 4] [M⁻¹ s⁻¹]	half-life [1] [min]	Kd [2] [nM]	kon [2] [M⁻¹ s⁻¹]
CC(C)[C@@H]1NC(=O)[C@@H](Cc2ccc(O)cc2)NC(=O)CSC[C@H](C(N)=O)NC(=O)[C@H](CC(N)=O)NC(=O)[C@H](Cc2c[nH]cn2)NC(=O)[C@H](CCCNC(=N)N)NC(=O)[C@H]2C[C@@H](C2)NC(=O)[C@H]([C@@H](C)O)NC(=O)[C@H](Cc2c[nH]cn2)NC(=O)[C@@H]2CCCN2C(=O)[C@H](CO)NC(=O)[C@H](CCCNC(=N)N)NC(=O)[C@H](CCCNC(=N)N)NC(=O)[C@H](C)NC(=O)[C@@H]2CCCN2C1=O [IB5β^14A, ^AcyVPA RRSPHTγ^2RHNc-NH2] ({CH2CO}-[dY]VPARRSPHT[Acbc(trans-1,3)]RHN[dC]-NH2; thioether N-15)	24.6 ± 1.8	> 10000				
CC(C)[C@@H]1NC(=O)[C@H](Cc2ccc(O)cc2)NC(=O)CSC[C@@H](C(N)=O)NC(=O)[C@H](CCCNC(=N)N)NC(=O)[C@H](CO)NC(=O)[C@H](CCCNC(=N)N)NC(=O)[C@H](Cc2c[nH]cn2)NC(=O)CNC(=O)[C@H]2C[C@H](C2)NC(=O)[C@H](Cc2c[nH]cn2)NC(=O)[C@H](CC(N)=O)NC(=O)[C@H](CCCNC(=N)N)NC(=O)[C@H](CCCNC(=N)N)NC(=O)[C@@H]2CCC[C@@H]2NC(=O)[C@H](C)NC1=O [IB1YC, ^AcYVAβ^1RRNHγ^1GHRSRC-NH2] ({CH2CO}-YVA[X1]RRNH[Acbc(cis-1,3)]GHRSRC-NH2; thioether N-15)		1700 ± 200	2200 ± 300			
CC(C)[C@@H]1NC(=O)[C@@H](Cc2ccc(O)cc2)NC(=O)CSC[C@H](C(N)=O)NC(=O)[C@H]([C@@H](C)O)NC(=O)[C@H](CC(N)=O)NC(=O)[C@H](Cc2c[nH]cn2)NC(=O)[C@H](CC(N)=O)NC(=O)[C@H](CCCNC(=N)N)NC(=O)[C@H](Cc2c[nH]cn2)NC(=O)[C@H]2C[C@H](C2)NC(=O)[C@H](CO)NC(=O)[C@H](CCCNC(=N)N)NC(=O)[C@H](CCCNC(=N)N)NC(=O)[C@@H]2CCC[C@@H]2NC(=O)[C@@H]2CCCN2C1=O [IA1s2, ^AcyVPβ^1RRSγ^1HRNHNTc-NH2] ({CH2CO}-[dY]VP[X1]RRS[Acbc(cis-1,3)]HRNHNT[dC]-NH2; thioether N-15)		2200 ± 200	2200 ± 200			
CC(C)[C@@H]1NC(=O)[C@H](CCCNC(=N)N)NC(=O)[C@@H]2CCC[C@@H]2NC(=O)[C@@H](Cc2ccc(O)cc2)NC(=O)CSC[C@H](C(N)=O)NC(=O)[C@H](CC(N)=O)NC(=O)[C@H](CO)NC(=O)[C@H](CCCNC(=N)N)NC(=O)[C@H]2C[C@H](C2)NC(=O)[C@H](Cc2c[nH]cn2)NC(=O)[C@H](CC(N)=O)NC(=O)[C@H]([C@@H](C)O)NC(=O)[C@H](Cc2c[nH]cn2)NC(=O)[C@H](CCCNC(=N)N)NC(=O)[C@@H]2CCCN2C1=O [IA1s3, ^Acyβ^1RVPRHTNHγ^1RSNc-NH2] ({CH2CO}-[dY][X1]RVPRHTNH[Acbc(cis-1,3)]RSN[dC]-NH2; thioether N-15)		> 10000				
CC(C)[C@@H]1NC(=O)[C@H](Cc2ccc(O)cc2)NC(=O)CSC[C@@H](C(N)=O)NC(=O)[C@H](CC(N)=O)NC(=O)[C@H]2C[C@@H](C2)NC(=O)[C@H](CCCNC(=N)N)NC(=O)[C@@H]2CCCN2C(=O)[C@H]([C@@H](C)O)NC(=O)[C@H](CCCNC(=N)N)NC(=O)[C@H](CCCNC(=N)N)NC(=O)[C@H](CO)NC(=O)[C@H](CCCNC(=N)N)NC(=O)[C@H](CCCNC(=N)N)NC(=O)[C@@H]2CCC[C@@H]2NC(=O)[C@@H]2CCCN2C1=O [IB4YC, ^AcYVPβ^1RRSRRTPRγ^2NC-NH2] ({CH2CO}-YVP[X1]RRSRRTPR[Acbc(trans-1,3)]NC-NH2; thioether N-15)	55.2 ± 6.6	45 ± 5	58000 ± 11000			
CC(C)[C@@H]1NC(=O)[C@@H]2CCC[C@@H]2NC(=O)[C@H](CCCNC(=N)N)NC(=O)[C@H](Cc2c[nH]cn2)NC(=O)[C@@H]2CCCN2C(=O)[C@H](CCCNC(=N)N)NC(=O)[C@H]2C[C@H](C2)NC(=O)[C@H]([C@@H](C)O)NC(=O)[C@H](CCCNC(=N)N)NC(=O)[C@H](CC(N)=O)NC(=O)[C@H](CO)NC(=O)[C@@H](Cc2ccc(O)cc2)NC(=O)CSC[C@H](C(N)=O)NC(=O)[C@H](Cc2c[nH]cn2)NC(=O)[C@H](CC(N)=O)NC1=O [IA1s1, ^AcySNRTγ^1RPHRβ^1VNHc-NH2] ({CH2CO}-[dY]SNRT[Acbc(cis-1,3)]RPHR[X1]VNH[dC]-NH2; thioether N-15)		> 10000				
CC(C)[C@@H]1NC(=O)[C@H](Cc2ccc(O)cc2)NC(=O)CSC[C@@H](C(N)=O)NC(=O)[C@H](CC(N)=O)NC(=O)[C@H](CO)NC(=O)[C@H](CCCNC(=N)N)NC(=O)[C@H]2C[C@H](C2)NC(=O)[C@H](Cc2c[nH]cn2)NC(=O)[C@H](CC(N)=O)NC(=O)[C@H]([C@@H](C)O)NC(=O)[C@H](Cc2c[nH]cn2)NC(=O)[C@H](CCCNC(=N)N)NC(=O)[C@H](CCCNC(=N)N)NC(=O)[C@@H]2CCC[C@@H]2NC(=O)[C@@H]2CCCN2C1=O [IA1YC, ^AcYVPβ^1RRHTNHγ^1RSNC-NH2] ({CH2CO}-YVP[X1]RRHTNH[Acbc(cis-1,3)]RSNC-NH2; thioether N-15)	156 ± 6	1400 ± 200	3600 ± 100			
CC(C)[C@@H]1NC(=O)[C@@H](Cc2ccc(O)cc2)NC(=O)CSC[C@H](C(N)=O)NC(=O)[C@H](CC(N)=O)NC(=O)[C@H]2C[C@@H](C2)NC(=O)[C@H](CCCNC(=N)N)NC(=O)[C@@H]2CCCN2C(=O)[C@H]([C@@H](C)O)NC(=O)[C@H](CCCNC(=N)N)NC(=O)[C@H](CCCNC(=N)N)NC(=O)[C@H](CO)NC(=O)[C@H](CCCNC(=N)N)NC(=O)[C@H](CCCNC(=N)N)NC(=O)[C@H](C)NC(=O)[C@@H]2CCCN2C1=O [IB4β^14A, ^AcyVPA RRSRRTPRγ^2Nc-NH2] ({CH2CO}-[dY]VPARRSRRTPR[Acbc(trans-1,3)]N[dC]-NH2; thioether N-15)				30 ± 1.8	420 ± 120	8900 ± 2100
CC(C)[C@@H]1NC(=O)[C@H](Cc2ccc(O)cc2)NC(=O)CSC[C@@H](C(N)=O)NC(=O)[C@H](CC(N)=O)NC(=O)[C@H](Cc2c[nH]cn2)NC(=O)[C@H](CCCNC(=N)N)NC(=O)[C@H]2C[C@@H](C2)NC(=O)[C@H]([C@@H](C)O)NC(=O)[C@H](Cc2c[nH]cn2)NC(=O)[C@@H]2CCCN2C(=O)[C@H](CO)NC(=O)[C@H](CCCNC(=N)N)NC(=O)[C@H](CCCNC(=N)N)NC(=O)[C@@H]2CCC[C@@H]2NC(=O)[C@@H]2CCCN2C1=O [IB5YC, ^AcYVPβ^1RRSPHTγ^2RHNC-NH2] ({CH2CO}-YVP[X1]RRSPHT[Acbc(trans-1,3)]RHNC-NH2; thioether N-15)	840 ± 120	1900 ± 100	16000 ± 1000			
CC(C)[C@@H]1NC(=O)[C@@H](Cc2ccc(O)cc2)NC(=O)CSC[C@H](C(N)=O)NC(=O)[C@H](CC(N)=O)NC(=O)[C@H](CO)NC(=O)[C@H](CCCNC(=N)N)NC(=O)[C@H]2C[C@H](C2)NC(=O)[C@H](Cc2c[nH]cn2)NC(=O)[C@H](CC(N)=O)NC(=O)[C@H]([C@@H](C)O)NC(=O)[C@H](Cc2c[nH]cn2)NC(=O)[C@H](CCCNC(=N)N)NC(=O)[C@H](CCCNC(=N)N)NC(=O)[C@H](C)NC(=O)[C@@H]2CCCN2C1=O [IA1β^14A, ^AcyVPA RRHTNHγ^1RSNc-NH2] ({CH2CO}-[dY]VPARRHTNH[Acbc(cis-1,3)]RSN[dC]-NH2; thioether N-15)	42.6 ± 6	> 10000				
